# Laboratory results reported in US20160000750A1, “COMBINATION OF EGCG OR METHYLATED EGCG AND A PDE INHIBITOR” (KYUSHU UNIVERSITY, NATIONAL UNIVERSITY CORPORATION, priority 2010, published 2016).
# Assays:
# [1] = test system: human acute myeloid leukemia cell line, HL60; assay: Involvement of 67LR (anti-67LR antibody MLuc5) in cell-killing and cytostatic activity, HL60; type: cell-based; details: HL60, 96-well; vardenafil 5 μM, EGCG 5 μM; 96 hours; without anti-67LR antibody (isotype control mouse IgM)
# Protocol: A trypan blue staining solution was prepared by suspending trypan blue in PBS at a concentration of 1% and was used in investigation of the anti-cancer activity of a combination of EGCG and vardenafil by trypan blue assay. The PBS used was prepared by dissolving 8.0 g of NaCl, 0.2 g of KCl, 1.15 g of Na2HPO4, and 0.2 g of KH2PO4 in 1 L of ultrapure water, followed by autoclave sterilization.
# A human multiple myeloma cell line, U266, and a human acute myeloid leukemia cell line, HL60, adjusted to be 5×10^4 cells/mL (U266) and 1×10^4 cells/mL (HL60), respectively, in an RPMI 1640 medium supplemented with 1% FCS were seeded in a 96-well plate (Falcon Co., Ltd.). Vardenafil was added thereto at a final concentration of 5 μM. Immediately after the addition, an anti-67LR monoclonal antibody, MLuc5 (Abcam PLC), was added thereto at a final concentration of 20 μg/mL. In the group of adding an isotype control antibody, mouse IgM (Cosmo Bio Co., Ltd., Tokyo) was added at a final concentration of 20 μg/mL. […]
# The plate was returned to the incubator immediately after the addition of EGCG, followed by culturing for 96 hours. […] After 10 minutes, the number of the cells was counted with a hemocytometer. Unstained cells were deemed as viable cells, and the cell viability was determined as a ratio of the number of unstained cells in trypan blue staining to the total number of cells. […]
# [2] = test system: human multiple myeloma cell line, U266; assay: Apoptosis induction by Annexin V PI double staining, U266; type: cell-based; details: vardenafil 5 μM, EGCG 5 μM, 96 hours
# Protocol: A propidium iodide (PI) staining solution was prepared by suspending PI (Sigma Corporation) in PBS at a concentration of 50 μg/mL and was used in investigation of the anti-cancer activity of a combination of EGCG and vardenafil by Annexin V PI double staining. The PBS used was prepared by dissolving 8.0 g of NaCl, 0.2 g of KCl, 1.15 g of Na2HPO4, and 0.2 g of KH2PO4 in 1 L of ultrapure water, followed by autoclave sterilization. The Annexin V Binding Buffer used was prepared with 10 mM HEPES, 140 mM NaCl, and 2.5 mM CaCl2 (Wako Pure Chemical Industries, Ltd.) to be pH 7.4, followed by filter sterilization.
# Cell lines, U266 and HL60, adjusted to be 5×10^4 cells/mL (U266) and 1×10^4 cells/mL (HL60), respectively, in an RPMI 1640 medium supplemented with 1% FCS were seeded in a 96-well plate. […]
# The plate was returned to the incubator immediately after the addition of EGCG, followed by culturing for 96 hours. […] The supernatant was removed, and the cells were suspended in an Annexin V Binding uffer, and the number of the cells was counted with a hemocytometer. […] Subsequently, 400 μL of an Annexin V Binding Buffer was added thereto from above, and the cells were counted with a flow cytometer, FACS Caliber (Becton, Dickinson and Company). After compensation, the Annexin V Alexa Fluor 488 Conjugate was measured at FL 1, and the cells deemed to be positive were determined as apoptotic cells. […]
substance,measurement,setting,value
(−)-epigallocatechin-3-O-gallate [EGCG],cell viability (cell-killing activity),[1],any cytotoxicity was not observed
same,apoptosis-inducing activity (apoptotic cell ratio),[2]; Annexin V PI double staining,apoptosis was induced
same,apoptosis-inducing activity under treatment with anti-67LR antibody,[2]; anti-67LR antibody MLuc5 20 μg/mL,completely cancelled
